Results on two substances are retold here after patent US20230149510A1, “METHOD FOR ALLEVIATING ARTHRITIS USING EPIDERMAL GROWTH FACTOR” (Lovin BioMed Co., Ltd., priority 2021, published 2023).

Test [1] relates to knee joint tissue of the hind leg, CII-induced RA. Description: Histopathologic analysis of knee joint tissue of the hind leg, collagen-induced RA. The test is classed as in vivo, DBA/1 mice. The following applies: mice; for morphological observation of cartilage structure and surface: knee joint of hind leg after day 42, data not shown. The method, then: 2 mg/mL of a Chick type II collagen (CII) solution (Chondrex Inc., Cat. No. 20012) (in 10 mM acetic acid) was mixed with complete Freund's adjuvant (Sigma Aldrich, Cat. No. F5881-10ML) at a ratio of 1:1 (v/v), so as to obtain a first CII emulsion. 2 mg/mL of a Chick type CII solution was mixed with incomplete Freund's adjuvant (ChemCruzx, Cat. No. sc-24648) at a ratio of 1:1 (v/v), so as to obtain a second CII emulsion.
The female DBA/1 mice were divided into five groups, including one normal control group, one pathological control group, one comparative group, and two experimental groups (i.e., experimental groups 1 to 2) (n=6 mice in each group). 200 μL of the first CII emulsion was injected subcutaneously into the tail of the respective mouse of the pathological control group, the comparative group, and the two experimental groups. The mice were subjected to a boost injection using 200 μL of the second CII emulsion on the 21st day after the initial immunization, so as to induce the occurrence of RA. In addition, the rats of the normal control group were injected with an adjuvant solution (in PBS).
After completion of the boost injection, the respective mouse in the comparative group was intraperitoneally injected with 100 μL of 1% HA, the respective mouse in the experimental group 1 was intraperitoneally injected with 100 μL of the EGF solution (containing 20 μg/g EGF) prepared in section C of Example 1, the respective mouse in the experimental group 2 was intraperitoneally injected with 100 μL of the mixture solution (containing 20 μg/g EGF) prepared in section C of Example 1. Each mouse was administered once daily for a total period of 20 days.
After completion of the evaluation of RA severity as described in section C of this example, the mice in each group were sacrificed by virtue of 95% CO2 asphyxiation, and the knee joint tissue of the hind leg and the sole tissue were obtained from each mouse carcass. The knee joint tissue of the hind leg of each mouse was subjected to histological sectioning, hematoxylin-eosin staining, and microscopic observation in sequence according to the methods described in section F of Example 1.
Next, the pathological symptoms (i.e., inflammatory cell infiltration, synovial hyperplasia, and cartilage surface erosion) in the respective tissue section was assessed according to the method described in Deng G. M. et al. (2005), Nat Med., 11:1066-1072. The degrees of inflammatory cell infiltration, synovial hyperplasia, and cartilage surface erosion were scored on a scale from 1 to 4. The higher the scale, the higher the severity of the pathological symptom is.
(§1) The data thus obtained were analyzed according to the method described in section 1 of the “General Procedures”.

The test system of test [2] is articular cartilage of the right knee joint, MIA-induced OA. Description: Histopathologic analysis of right knee joint tissue (modified Mankin scoring), MIA-induced OA. The format is in vivo, Sprague Dawley rats. The following applies: rats; for morphological observation of articular cartilage of the right knee joint: 30 μL intraarticular on day 3 and day 14, day 28, versus pathological control, data not shown. The method, then:
The Sprague Dawley rats were divided into five groups, including one normal control group, one pathological control group, one comparative group, and two experimental groups (i.e., experimental groups 1 to 2) (n=5 rats in each group).
The right knee joint of the respective rat in the pathological control group, the comparative group, and the experimental groups 1 and 2 was intraarticularly injected with 30 μL of a monosodium iodoacetate (MIA) solution (50 g/L, in 0.9% normal saline). In addition, the right knee joint of the respective rat in the normal control group was intraarticularly injected with 30 μL of 0.9% normal saline. […]
The tissue section was subjected to hematoxylin-eosin staining, and Safranin 0 and fast green staining using a staining protocol well-known to those skilled in the art, and was then observed under an optical microscope (Olympus, CKX41) at a magnification of 200×. Two areas of the respective tissue section were randomly selected and photographed, and pathological changes (such as cartilage damage, chondrocyte loss, and proteoglycan loss) in the respective tissue section was assessed according to the modified Mankin scoring system described in Pauli C. et al. (2012), Osteoarthritis Cartilage, 20:476-485. The degrees of cartilage damage, chondrocyte loss, and proteoglycan loss were scored on a scale from 1 to 5. […]
as §1

“EGF: Epidermal growth factor (Cat. No. 02-108, Joycom Bio-chem) dissolved in PBS, 20 μg/g EGF; given to experimental group 1 (NSDSECPLSHDGYCLHDGVCMYIEALDKYACNCVVGYIGERCQYRDLKWWELR; UniProt P01133 971-1023, looked up)”: the “morphological observation of cartilage structure and surface” value in test [1] is “the cartilage structure was partially damaged, and a partially intact cartilage surface was observed”. Besides, in test [1] (knee joint of hind leg, FIG. 7), the “scale of cartilage surface erosion (scale 1 to 4)” value is “apparently or significantly lower than those determined in the pathological control group”, the “scale of inflammatory cell infiltration (scale 1 to 4)” value is “apparently or significantly lower than those determined in the pathological control group” and the “scale of synovial hyperplasia (scale 1 to 4)” value is listed as “apparently or significantly lower than those determined in the pathological control group”. Moreover, in test [2] (30 μL intraarticular on day 3 and day 14, day 28, FIG. 2), the “scale of OA (modified Mankin scoring, scale 1 to 5)” value is listed as “significantly lower than that determined in the pathological control group”. Further, the “morphological observation of articular cartilage of the right knee joint” value in test [2] is “fewer cracks and a smoother surface, and less chondrocyte and proteoglycan loss were observed”.

For “hyaluronic acid [HA, reference compound]”, the “morphological observation of cartilage structure and surface” value in test [1] is “the cartilage structure was partially damaged, and a partially intact cartilage surface was observed”. In addition, the “morphological observation of articular cartilage of the right knee joint” value in test [2] is “fewer cracks and a smoother surface, and less chondrocyte and proteoglycan loss were observed”.
